Results on 25 compounds are retold here after ChEMBL document CHEMBL3991601, “The target landscape of clinical kinase drugs” (Science, 2017).

The term Kd denotes the constant that tells how readily two partners part at equilibrium.

The target of assay [1] is T1, NUAK family SNF1-like kinase 2 (Homo sapiens, UniProt Q9H093).
T1 sequence (Q9H093 whole entry): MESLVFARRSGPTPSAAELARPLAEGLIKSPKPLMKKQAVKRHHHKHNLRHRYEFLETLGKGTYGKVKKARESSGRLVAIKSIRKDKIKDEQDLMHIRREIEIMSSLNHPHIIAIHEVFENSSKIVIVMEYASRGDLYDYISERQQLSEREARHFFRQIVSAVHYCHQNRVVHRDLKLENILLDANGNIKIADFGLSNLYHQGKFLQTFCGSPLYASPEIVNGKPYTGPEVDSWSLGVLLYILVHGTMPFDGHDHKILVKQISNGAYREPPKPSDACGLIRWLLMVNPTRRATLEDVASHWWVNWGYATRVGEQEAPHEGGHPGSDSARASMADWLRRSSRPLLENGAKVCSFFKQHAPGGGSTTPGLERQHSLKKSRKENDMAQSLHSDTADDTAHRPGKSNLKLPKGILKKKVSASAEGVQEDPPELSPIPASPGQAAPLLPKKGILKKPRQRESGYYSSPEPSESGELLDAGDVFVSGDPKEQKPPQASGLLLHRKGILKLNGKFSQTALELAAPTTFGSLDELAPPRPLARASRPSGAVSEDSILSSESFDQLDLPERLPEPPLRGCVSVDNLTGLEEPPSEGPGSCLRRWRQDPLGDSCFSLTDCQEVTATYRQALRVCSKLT

Assay [2] concerns the target T2, Phosphatidylinositol 5-phosphate 4-kinase type-2 gamma (Homo sapiens, UniProt Q8TBX8).
T2 sequence (Q8TBX8 whole entry): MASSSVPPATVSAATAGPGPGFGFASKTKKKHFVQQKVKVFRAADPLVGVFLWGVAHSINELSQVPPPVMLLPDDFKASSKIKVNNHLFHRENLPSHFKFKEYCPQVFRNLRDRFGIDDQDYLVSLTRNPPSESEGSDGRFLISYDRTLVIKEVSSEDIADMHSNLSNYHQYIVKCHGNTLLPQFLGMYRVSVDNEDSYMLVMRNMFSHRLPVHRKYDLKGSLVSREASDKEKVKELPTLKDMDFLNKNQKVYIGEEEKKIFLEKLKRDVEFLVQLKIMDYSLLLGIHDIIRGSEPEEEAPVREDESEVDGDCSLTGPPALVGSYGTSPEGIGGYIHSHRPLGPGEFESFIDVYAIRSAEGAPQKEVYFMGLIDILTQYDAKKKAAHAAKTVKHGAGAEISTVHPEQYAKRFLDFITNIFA

Assay [3] has as its target Platelet-derived growth factor receptor beta (Homo sapiens, UniProt P09619).
Assay [4] concerns the target T3, Serine/threonine-protein kinase TAO2 (Homo sapiens, UniProt Q9UL54).
T3 sequence (Q9UL54 whole entry): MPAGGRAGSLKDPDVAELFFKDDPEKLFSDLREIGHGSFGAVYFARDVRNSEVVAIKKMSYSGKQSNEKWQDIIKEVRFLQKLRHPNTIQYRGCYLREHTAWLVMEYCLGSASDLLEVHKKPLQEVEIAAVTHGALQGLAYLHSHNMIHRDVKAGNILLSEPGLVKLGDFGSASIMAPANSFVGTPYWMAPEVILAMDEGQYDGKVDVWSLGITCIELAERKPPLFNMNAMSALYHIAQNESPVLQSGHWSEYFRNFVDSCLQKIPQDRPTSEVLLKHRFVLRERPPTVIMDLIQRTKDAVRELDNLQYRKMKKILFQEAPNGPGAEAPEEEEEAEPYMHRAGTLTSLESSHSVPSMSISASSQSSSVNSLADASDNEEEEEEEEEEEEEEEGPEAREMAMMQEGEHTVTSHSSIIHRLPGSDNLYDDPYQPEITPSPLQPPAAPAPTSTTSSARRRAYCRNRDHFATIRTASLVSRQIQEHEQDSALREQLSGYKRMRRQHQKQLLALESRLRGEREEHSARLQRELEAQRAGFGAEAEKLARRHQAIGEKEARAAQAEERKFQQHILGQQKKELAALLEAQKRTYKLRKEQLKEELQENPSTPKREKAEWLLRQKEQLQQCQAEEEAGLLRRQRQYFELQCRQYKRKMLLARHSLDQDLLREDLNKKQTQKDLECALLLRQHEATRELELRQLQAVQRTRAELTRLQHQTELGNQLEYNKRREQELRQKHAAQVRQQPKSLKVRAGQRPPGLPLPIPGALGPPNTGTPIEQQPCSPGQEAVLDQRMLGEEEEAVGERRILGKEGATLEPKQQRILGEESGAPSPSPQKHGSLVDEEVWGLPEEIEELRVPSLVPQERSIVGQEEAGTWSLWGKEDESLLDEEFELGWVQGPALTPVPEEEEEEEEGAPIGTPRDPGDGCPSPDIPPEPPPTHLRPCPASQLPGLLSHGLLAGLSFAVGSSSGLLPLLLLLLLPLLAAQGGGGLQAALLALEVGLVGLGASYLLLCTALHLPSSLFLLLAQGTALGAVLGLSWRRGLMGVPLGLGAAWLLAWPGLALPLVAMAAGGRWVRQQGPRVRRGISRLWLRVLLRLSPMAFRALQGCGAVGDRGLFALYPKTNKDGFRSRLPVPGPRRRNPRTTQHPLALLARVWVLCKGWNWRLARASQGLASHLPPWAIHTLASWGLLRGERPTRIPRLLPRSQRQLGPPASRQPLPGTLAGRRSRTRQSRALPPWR

The source made the active and inactive calls. Cut-off read from the data, not from the text of the source, for most assays here: actives have a measured Kd and inactives only a lower limit. Where only a bound is given, the exact number is not on record here.
Note: in the data inactive means no Kd found up to 30 µM.

Sequence of Platelet-derived growth factor receptor beta (P09619 whole entry): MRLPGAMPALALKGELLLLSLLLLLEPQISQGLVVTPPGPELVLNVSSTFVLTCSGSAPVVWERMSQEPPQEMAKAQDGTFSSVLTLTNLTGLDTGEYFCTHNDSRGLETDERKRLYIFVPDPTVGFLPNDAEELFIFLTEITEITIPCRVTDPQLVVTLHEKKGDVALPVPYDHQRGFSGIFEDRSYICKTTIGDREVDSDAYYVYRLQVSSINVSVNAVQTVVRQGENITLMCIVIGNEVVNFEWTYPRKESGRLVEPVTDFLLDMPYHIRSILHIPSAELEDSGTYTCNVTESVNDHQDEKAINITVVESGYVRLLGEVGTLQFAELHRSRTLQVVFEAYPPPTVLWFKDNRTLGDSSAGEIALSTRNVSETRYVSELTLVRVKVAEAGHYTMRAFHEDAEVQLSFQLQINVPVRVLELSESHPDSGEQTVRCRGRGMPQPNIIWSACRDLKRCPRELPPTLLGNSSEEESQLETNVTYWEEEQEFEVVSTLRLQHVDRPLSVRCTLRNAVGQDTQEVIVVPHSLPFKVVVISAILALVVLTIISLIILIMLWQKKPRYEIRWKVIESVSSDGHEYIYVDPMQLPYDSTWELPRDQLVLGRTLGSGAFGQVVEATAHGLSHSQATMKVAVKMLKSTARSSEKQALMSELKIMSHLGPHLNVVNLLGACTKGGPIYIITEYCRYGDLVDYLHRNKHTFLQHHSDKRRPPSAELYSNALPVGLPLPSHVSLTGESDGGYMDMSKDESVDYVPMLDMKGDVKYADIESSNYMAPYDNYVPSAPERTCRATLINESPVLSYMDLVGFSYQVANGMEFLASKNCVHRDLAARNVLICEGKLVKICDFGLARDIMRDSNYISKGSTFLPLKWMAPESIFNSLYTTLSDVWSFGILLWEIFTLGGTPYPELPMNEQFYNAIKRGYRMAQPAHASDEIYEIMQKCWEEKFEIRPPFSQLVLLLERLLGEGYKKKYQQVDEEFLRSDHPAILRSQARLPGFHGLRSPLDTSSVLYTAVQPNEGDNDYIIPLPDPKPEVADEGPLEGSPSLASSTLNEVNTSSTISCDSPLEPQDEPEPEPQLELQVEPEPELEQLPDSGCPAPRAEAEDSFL

Regarding `COc1cc2nccc(Oc3ccc(NC(=O)NC4CC4)c(Cl)c3)c2cc1C(N)=O` [LENVATINIB], the Kd in assay [1] is > 30 µM (inactive); in assay [2], > 30 µM (inactive); in assay [3], 0.316 µM (active); in assay [4], > 30 µM (inactive).
`CO[C@H]1C[C@@H]2CC[C@@H](C)[C@@](O)(O2)C(=O)C(=O)N2CCCC[C@H]2C(=O)O[C@H]([C@H](C)C[C@@H]2CC[C@@H](OCCO)[C@H](OC)C2)CC(=O)[C@H](C)/C=C(\C)[C@@H](O)[C@@H](OC)C(=O)[C@H](C)C[C@H](C)/C=C/C=C/C=C/1C` [EVEROLIMUS]: the Kd in assay [1], in assay [2], in assay [3] and in assay [4] was > 30 µM (inactive) in each case.
For `Cc1ccc(NC(=O)c2ccc(CN3CC[C@H](N(C)C)C3)c(C(F)(F)F)c2)cc1Nc1nccc(-c2cncnc2)n1` [BAFETINIB], the Kd in assay [1] is > 30 µM (inactive); in assay [2], 6.18 µM; in assay [3], 3.13 µM (active); in assay [4] it was > 30 µM (inactive).
Take `CC(C)Nc1cc(-c2c[nH]c(C(=O)N[C@H](CO)c3cccc(Cl)c3)c2)c(Cl)cn1` [ULIXERTINIB]: the Kd in assay [1], in assay [2], in assay [3] and in assay [4] was > 30 µM (inactive) throughout.
As for `O=C(Nc1cccc(Cl)c1)Nc1ncc(CCNc2ncnc3ccsc23)s1` [SNS-314], the Kd in assay [1] and in assay [4] was > 30 µM (inactive) each time.
Regarding `O=C1NC(=O)/C(=C/c2ccc3nccc(-c4ccncc4)c3c2)S1` [GSK-1059615], the Kd in assay [1] is > 30 µM (inactive); in assay [2] it was 0.331 µM; in assay [3] it was > 30 µM (inactive); in assay [4], > 30 µM (inactive).
For the compound `COc1cc(CCc2cc(NC(=O)c3ccc(N4C[C@@H](C)N[C@@H](C)C4)cc3)n[nH]2)cc(OC)c1` [AZD-4547], the Kd is > 30 µM (inactive) in assay [1], > 30 µM (inactive) in assay [2], 0.288 µM (active) in assay [3] and > 30 µM (inactive) in assay [4].
`C[C@@H]1CN(Cc2ccc(F)cc2)[C@@H](C)CN1C(=O)c1cc2c(C(=O)C(=O)N(C)C)cn(C)c2cc1Cl` [TALMAPIMOD]: the Kd in assay [1], in assay [2], in assay [3] and in assay [4] was > 30 µM (inactive) in each case.
On to `CCS(=O)(=O)N1CC(CC#N)(n2cc(-c3ncnc4[nH]ccc34)cn2)C1` [BARICITINIB], for which the Kd in assay [1], in assay [2], in assay [3] and in assay [4] was > 30 µM (inactive) each time.
As for `COc1ccc(-c2ccc3c(N4CCOC[C@@H]4C)nc(N4CCOC[C@@H]4C)nc3n2)cc1CO` [AZD-8055], the Kd in assay [1], in assay [2], in assay [3] and in assay [4] was > 30 µM (inactive) throughout.
On to `CN1CC[C@@H](c2c(O)cc(O)c3c(=O)cc(-c4ccccc4Cl)oc23)[C@@H]1CO`, for which the Kd in assay [1], in assay [2], in assay [3] and in assay [4] was > 30 µM (inactive) throughout.
On to `C=CC(=O)N1CCC(Oc2cc3c(Nc4ccc(Cl)c(Cl)c4F)ncnc3cc2OC)CC1` [POZIOTINIB], for which the Kd in assay [1], in assay [2], in assay [3] and in assay [4] was > 30 µM (inactive) throughout.
On to `Cn1cc(-c2ccc3nnc(C(F)(F)c4ccc5ncccc5c4)n3n2)cn1` [JNJ-38877605], for which the Kd is > 30 µM (inactive) in assay [1], 0.32 µM (active) in assay [2], > 30 µM (inactive) in assay [3] and > 30 µM (inactive) in assay [4].
As for `Cc1ccc(-n2nc(C(C)(C)C)cc2NC(=O)NCc2cc(F)ccc2Oc2ccc3c(cnn3CCO)c2)cc1` [PEXMETINIB], the Kd in assay [1], in assay [2], in assay [3] and in assay [4] was > 30 µM (inactive) in each case.
Turning to `Cc1c(F)cc(C(=O)NC2CC2)cc1-c1ccc(C(=O)NCC(C)(C)C)cn1` [LOSMAPIMOD], the Kd in assay [1], in assay [2], in assay [3] and in assay [4] was > 30 µM (inactive) throughout.
For the compound `Cc1cc(Nc2cc(N3CCN(C)CC3)nc(/C=C/c3ccccc3)n2)n[nH]1` [ENMD-2076], the Kd in assay [2] is > 30 µM (inactive).
On to `COc1cc(N2CCC(N3CCN(C)CC3)CC2)ccc1Nc1ncnc(Nc2ccccc2S(=O)(=O)C(C)C)n1` [ASP-3026], for which the Kd in assay [1], in assay [2], in assay [3] and in assay [4] was > 30 µM (inactive) each time.
Take `CNC(=O)c1ccc(-c2cnc3ncc(Cc4ccc5ncccc5c4)n3n2)cc1F` [CAPMATINIB]: the Kd in assay [1], in assay [2], in assay [3] and in assay [4] was > 30 µM (inactive) each time.
For `CNC(=O)c1ccc(C)c(-n2c(C)cc(OCc3ccc(F)cc3F)c(Br)c2=O)c1` [PH-797804], the Kd in assay [1], in assay [2], in assay [3] and in assay [4] was > 30 µM (inactive) throughout.
Consider `Cc1nc(N)sc1-c1ccnc(Nc2ccc(N3CCOCC3)cc2)n1` [CYC-116], for which the Kd in assay [1] was 0.007 µM; in assay [2], 0.067 µM (active).
For `C[C@@H](c1ccc2nccn2c1)n1nnc2ncc(-c3cnn(C)c3)nc21` [SAVOLITINIB], the Kd in assay [1], in assay [3] and in assay [4] was > 30 µM (inactive) throughout.
Regarding `CCc1cnn2c(NCc3ccc[n+]([O-])c3)cc(N3CCCC[C@H]3CCO)nc12` [DINACICLIB], the Kd was > 30 µM (inactive) in assay [1], > 30 µM (inactive) in assay [2] and 2.23 µM (active) in assay [4].
In the case of `CNC(=O)c1cc(Oc2ccc(NC(=O)Nc3ccc(Cl)c(C(F)(F)F)c3)c(F)c2)ccn1` [REGORAFENIB], the Kd in assay [1], in assay [2] and in assay [4] was > 30 µM (inactive) throughout.
With `OCCn1cc(-c2cnc3nnn(Cc4ccc5ncccc5c4)c3n2)cn1` [PF-04217903], the Kd in assay [1], in assay [2] and in assay [4] was > 30 µM (inactive) in each case.
For the compound `O=C(c1ccc(F)c(F)c1Nc1ccc(I)cc1F)N1CC(O)([C@@H]2CCCCN2)C1` [COBIMETINIB], the Kd in assay [2], in assay [3] and in assay [4] was > 30 µM (inactive) throughout.
